Results reported in PubChem BioAssay (NCI).
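Values below derive from 48-hour exposures of cells grown in 96-well plates, with endpoints linearly interpolated between the two concentrations bracketing the appropriate inhibition level. GI50 = concentration required for 50% inhibition of growth. TGI denotes the concentration required for complete inhibition of growth.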

What was measured:
Assay in all cases: NCI tumour cell line growth inhibition, 48 h
[1] = tested on: K-562 leukemia
[2] = tested on: NCI/ADR-RES ovarian
[3] = tested on: SF-268 CNS
[4] = tested on: SF-295 CNS
[5] = tested on: SK-MEL-2 melanoma
[6] = tested on: SN12C renal
[7] = tested on: SNB-75 CNS
[8] = tested on: SW-620 colon
[9] = tested on: U251 CNS
[10] = tested on: SF-539 CNS

Row | SMILES | TGI [1] | TGI [2] | TGI [3] | TGI [4] | TGI [5] | TGI [6] | TGI [7] | TGI [8] | TGI [9] | TGI [10] | GI50 [1] | GI50 [3] | GI50 [4] | GI50 [10] | GI50 [5] | GI50 [6] | GI50 [8]
1 | CCC1(CC)C(=O)N(C(=O)c2ccc(Cl)cc2)N(C(=O)c2ccccc2Cl)C1=O | > 100 µM | > 100 µM | > 100 µM | > 100 µM | > 100 µM | > 100 µM | > 100 µM | 89.8 µM | > 100 µM | – | – | – | – | – | – | – | –
2 | N#Cc1ccc(/C=C2\Cc3ccccc3C2=O)cc1 | > 100 µM | – | > 100 µM | > 100 µM | – | > 100 µM | > 100 µM | > 100 µM | – | > 100 µM | – | – | – | – | – | – | –
3 | CC(C)(C)C(=O)Cc1cc2c(cc1C(=O)O)S(=O)(=O)NC(C(C)(C)C)=C2 | > 100 µM | – | > 100 µM | > 100 µM | > 100 µM | > 100 µM | > 100 µM | > 100 µM | > 100 µM | – | – | – | – | – | – | – | –
4 | COC[C@H](Cc1ccccc1)N=Cc1ccccc1 | > 100 µM | > 100 µM | > 100 µM | > 100 µM | > 100 µM | > 100 µM | > 100 µM | > 100 µM | > 100 µM | – | – | – | – | – | – | – | –
5 | C[N+]12C=CC=C1C(N1CCCC1)c1sc(-c3ccc(Cl)cc3)cc12 (stereo not drawn) | – | > 100 µM | 34.3 µM | 43.7 µM | 21.1 µM | 27.9 µM | 25.7 µM | 29.9 µM | 24.5 µM | – | – | – | – | – | – | – | –
6 | CC(C)(Oc1ccc(C2C[C@H]2Cl)cc1)C(=O)O (stereo partly drawn) | > 100 µM | – | – | > 100 µM | > 100 µM | > 100 µM | > 100 µM | > 100 µM | > 100 µM | > 100 µM | – | – | – | – | – | – | –
7 | CC(=S)NC1C(Oc2ccc3c(C)cc(=O)oc3c2)OC(CO)C(O)C1O (stereo not drawn) | > 100 µM | > 100 µM | – | > 100 µM | > 100 µM | > 100 µM | > 100 µM | > 100 µM | > 100 µM | > 100 µM | – | – | – | – | – | – | –
8 | COc1ccc2[nH]c3c(C)c4ccnc(NCCCN(C)CCCNC(=O)NCCCN(C)CCCNc5nccc6c(C)c7[nH]c8ccc(OC)cc8c7c(C)c56)c4c(C)c3c2c1 | > 50 µM | > 50 µM | 3.25 µM | – | 4.07 µM | 2.91 µM | 1.56 µM | 1.3 µM | – | 1.18 µM | – | – | – | – | – | – | –
9 | Clc1ccc(CCN2CCN(CCCc3ccccc3)CC2)cc1Cl | > 100 µM | 28.5 µM | 35.3 µM | 30 µM | 36.4 µM | 29.8 µM | – | 51.6 µM | 31.9 µM | 32.4 µM | – | – | – | – | – | – | –
10 | O=c1[nH]/c(=C/c2ccc(OCc3ccccc3)cn2)c(=O)[nH]/c1=C/c1cccnc1 | – | 1.33 µM | > 35 µM | 1.65 µM | > 44.1 µM | – | 36.8 µM | > 100 µM | > 100 µM | – | – | – | – | – | – | – | –
11 | O=c1n(CCO)nc2n1CCCN2 | > 100 µM | – | > 100 µM | > 100 µM | > 100 µM | > 100 µM | > 100 µM | > 100 µM | > 100 µM | > 100 µM | – | – | – | – | – | – | –
12 | COC[C@@H](N=Cc1ccc(OC)cc1)C(C)C | > 100 µM | > 100 µM | > 100 µM | > 100 µM | > 100 µM | > 100 µM | > 100 µM | > 100 µM | > 100 µM | – | – | – | – | – | – | – | –
13 | COc1ccc(C2Oc3cc(OC)c(O)cc3[C@@H]2C)cc1 (stereo partly drawn) | > 100 µM | – | > 100 µM | > 100 µM | > 100 µM | – | 96.6 µM | 40.2 µM | > 100 µM | > 100 µM | – | – | – | – | – | – | –
14 | Cc1[nH]c(=O)nc2c1C(=O)N(C(C)C)C(NC(C)C)S2 (stereo not drawn) | > 100 µM | > 100 µM | – | > 100 µM | > 100 µM | > 100 µM | > 100 µM | > 100 µM | > 100 µM | > 100 µM | – | – | – | – | – | – | –
15 | CN1C(=N\S(=O)(=O)c2ccc(Cl)cc2)/C(=N/N=P(c2ccccc2)(c2ccccc2)c2ccccc2)c2ccccc21 | > 100 µM | – | > 100 µM | > 100 µM | > 100 µM | > 100 µM | > 100 µM | > 100 µM | > 100 µM | > 100 µM | – | – | – | – | – | – | –
16 | CC1=CC(=O)C[C@]2(C)[C@@H](O)CC(C(C)CO)C[C@@H]12 (stereo partly drawn) | – | > 100 µM | > 100 µM | > 100 µM | > 100 µM | > 100 µM | > 100 µM | > 100 µM | > 100 µM | > 100 µM | – | – | – | – | – | – | –
17 | CCCCCCCCCCCCCCCCCc1nc(C#N)c(N)o1 | > 100 µM | – | > 100 µM | – | > 100 µM | > 100 µM | 70.2 µM | > 100 µM | > 100 µM | – | – | – | – | – | – | – | –
18 | OB1OCc2ccccc21 | > 100 µM | 57.9 µM | > 100 µM | 40.9 µM | > 100 µM | > 100 µM | – | > 100 µM | > 100 µM | 64.4 µM | – | – | – | – | – | – | –
19 | Cc1ccc(-n2cc(-c3ccc(Cl)cc3)c3c(NNC(=S)NCc4ccccc4)ncnc32)cc1 | > 100 µM | 32.8 µM | > 100 µM | 55.4 µM | 20.1 µM | 24.3 µM | – | > 100 µM | 48.6 µM | 30.7 µM | – | – | – | – | – | – | –
20 | CCOc1c(OC)cc(CNNc2nccs2)cc1OC | > 100 µM | > 100 µM | > 100 µM | > 100 µM | – | > 100 µM | > 100 µM | > 100 µM | > 100 µM | > 100 µM | – | – | – | – | – | – | –
21 | COc1cccc(C(=O)C(O)c2cccc(OC)c2OC)c1OC (stereo not drawn) | – | > 100 µM | > 100 µM | > 100 µM | > 100 µM | > 100 µM | > 100 µM | > 100 µM | > 100 µM | > 100 µM | – | – | – | – | – | – | –
22 | COCN1C(=O)[C@@H]2C[C@@H](OC/C=C/CBr)CN2C(=O)c2ccccc21 | – | > 100 µM | 83.4 µM | 46.5 µM | > 100 µM | 33.3 µM | 27.9 µM | 45.6 µM | 74.8 µM | 40.8 µM | – | – | – | – | – | – | –
23 | O=C(CCc1nnc2s/c(=C\c3ccc(Cl)cc3Cl)c(=O)n12)Nc1cc(Cl)c(Cl)cc1Cl | > 100 µM | – | > 100 µM | > 100 µM | > 100 µM | > 100 µM | > 100 µM | > 100 µM | > 100 µM | > 100 µM | > 100 µM | > 100 µM | > 100 µM | > 100 µM | > 100 µM | > 100 µM | > 100 µM
